Experimental data: ChEMBL document CHEMBL1681668, “Discovery of INCB10820/PF-4178903, a potent, selective, and orally bioavailable dual CCR2 and CCR5 antagonist” (Bioorg Med Chem Lett, 2011)

Columns and labels:
[1] = biological target: C-C chemokine receptor type 5 (Homo sapiens, UniProt P51681); experiment: Displacement of labeled MIP-1beta from human CCR5 receptor
[2] = biological target: C-C chemokine receptor type 2 (Homo sapiens) (UniProt P41597); experiment: Displacement of [125I]MCP1 from human CCR2 at 1000 nM after 30 mins by gamma counting
[3] = Half life in human liver microsomes; type: ADME, Microsome
[4] = Clearance in rat at 5 mg/kg, iv and 10 mg/kg, po; type: ADME, organism-based; details: in vivo
[5] = Volume of distribution at steady state in rat at 5 mg/kg, iv and 10 mg/kg, po; type: ADME, organism-based; details: in vivo, read-out: Vdss
[6] = Half life in rat at 5 mg/kg, iv; type: ADME, organism-based; design: dose 5 mg/kg, route intravenous; details: in vivo
[7] = AUC in rat at 10 mg/kg, po; type: ADME, organism-based; design: dose 10 mg/kg, route oral; details: plasma
[8] = Oral bioavailability in rat at 10 mg/kg; type: ADME, organism-based; details: in vivo
[9] = Clearance in cynomolgus monkey at […], iv and 10 mg/kg, po; type: ADME, organism-based, Macaca fascicularis; details: in vivo
[10] = Volume of distribution at steady state in cynomolgus monkey at […], iv and 10 mg/kg, po; type: ADME, organism-based, Macaca fascicularis; details: in vivo, read-out: Vdss
[11] = Half life in cynomolgus monkey at […], iv; type: ADME, organism-based, Macaca fascicularis; design: dose 2.5 mg/kg, route intravenous; details: in vivo
[12] = AUC in cynomolgus monkey at 10 mg/kg, po; type: ADME, organism-based, Macaca fascicularis; design: dose 10 mg/kg, route oral; details: plasma
[13] = Oral bioavailability in cynomolgus monkey at 10 mg/kg; type: ADME, organism-based, Macaca fascicularis; details: in vivo

C-C chemokine receptor type 5, sequence (P51681 whole entry): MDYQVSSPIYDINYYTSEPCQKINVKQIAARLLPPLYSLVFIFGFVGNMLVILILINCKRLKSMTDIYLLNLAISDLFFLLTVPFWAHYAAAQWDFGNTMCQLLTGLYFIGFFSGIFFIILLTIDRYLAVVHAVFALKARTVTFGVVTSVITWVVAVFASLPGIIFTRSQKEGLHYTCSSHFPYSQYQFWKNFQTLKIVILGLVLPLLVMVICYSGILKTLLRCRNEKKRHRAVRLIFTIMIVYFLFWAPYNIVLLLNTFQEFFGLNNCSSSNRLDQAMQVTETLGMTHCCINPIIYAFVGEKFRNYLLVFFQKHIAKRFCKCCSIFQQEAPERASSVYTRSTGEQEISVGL
C-C chemokine receptor type 2 (Homo sapiens), sequence (P41597 whole entry, looked up): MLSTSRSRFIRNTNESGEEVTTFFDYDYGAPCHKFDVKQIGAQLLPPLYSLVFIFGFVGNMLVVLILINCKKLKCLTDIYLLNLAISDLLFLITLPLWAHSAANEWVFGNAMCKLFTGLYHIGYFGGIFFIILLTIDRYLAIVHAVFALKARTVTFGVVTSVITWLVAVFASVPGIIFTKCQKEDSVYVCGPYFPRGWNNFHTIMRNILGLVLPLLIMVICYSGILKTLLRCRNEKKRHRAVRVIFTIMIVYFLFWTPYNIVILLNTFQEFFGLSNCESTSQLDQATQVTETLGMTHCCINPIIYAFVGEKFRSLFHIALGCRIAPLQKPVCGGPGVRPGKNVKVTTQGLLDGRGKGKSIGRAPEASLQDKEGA

Row | Compound | IC50 [1] [nM] | further results
1 | CC(C)[C@]1(C(=O)N2CCN(c3cccc(C(F)(F)F)c3)CC2)CC[C@@H](NC2CCOCC2)C1 | 283 | –
2 | CC(C)[C@]1(C(=O)N2CCN(c3cccc(C(F)(F)F)c3)CC2)CC[C@@H](N[C@@H]2CCOC[C@H]2C)C1 | > 1000 | –
3 | CC(C)[C@]1(C(=O)N2CCN(c3cccc(C(F)(F)F)c3)CC2)CC[C@@H](N[C@H]2CCOC[C@@H]2C)C1 | 370 | –
4 | CC(C)[C@]1(C(=O)N2CCN(c3ccc(C(F)(F)F)cc3)CC2)CC[C@@H](NC2CCOCC2)C1 | – | inhibition [2]: 40%
5 | CO[C@@H]1COCC[C@@H]1N[C@@H]1CC[C@@](C(=O)N2CCN(c3cc(C(F)(F)F)ccn3)CC2)(C(C)C)C1 | – | half-life [3]: 1.55 h; clearance [4]: 63.3 mL/min/kg; Vd [5]: 17 L/kg; half-life [6]: 5 h; AUC [7]: 3 µM·h; bioavailability [8]: 84%; clearance [9]: 36.7 mL/min/kg; Vd [10]: 6.2 L/kg; half-life [11]: 3 h; AUC [12]: 5.3 µM·h; bioavailability [13]: 57%
6 | CC[C@H]1COCC[C@@H]1N[C@@H]1CC[C@@](C(=O)N2CCN(c3cccc(C(F)(F)F)c3)CC2)(C(C)C)C1 | 546 | –
7 | CC(C)[C@]1(C(=O)N2CCN(c3ccccc3C(F)(F)F)CC2)CC[C@@H](NC2CCOCC2)C1 | – | inhibition [2]: 19%
8 | CO[C@H]1COCC[C@H]1N[C@@H]1CC[C@@](C(=O)N2CCN(c3cccc(C(F)(F)F)c3)CC2)(C(C)C)C1 | 204 | –
9 | CC(C)[C@]1(C(=O)N2CCC(c3ccccc3)CC2)CC[C@@H](NC2CCOCC2)C1 | – | inhibition [2]: 0%
10 | CC[C@H]1COCC[C@H]1N[C@@H]1CC[C@@](C(=O)N2CCN(c3cccc(C(F)(F)F)c3)CC2)(C(C)C)C1 | 312 | –
11 | COC[C@@H]1COCC[C@@H]1N[C@@H]1CC[C@@](C(=O)N2CCN(c3cccc(C(F)(F)F)c3)CC2)(C(C)C)C1 | 201 | –
12 | CC[C@@H]1COCC[C@H]1N[C@@H]1CC[C@@](C(=O)N2CCN(c3cccc(C(F)(F)F)c3)CC2)(C(C)C)C1 | 1000 | –
13 | CCO[C@H]1COCC[C@H]1N[C@@H]1CC[C@@](C(=O)N2CCN(c3cccc(C(F)(F)F)c3)CC2)(C(C)C)C1 | 206 | –
14 | COC[C@H]1COCC[C@H]1N[C@@H]1CC[C@@](C(=O)N2CCN(c3cccc(C(F)(F)F)c3)CC2)(C(C)C)C1 | 572 | –

The remaining compounds from weak to strong by IC50 [1], led by results:

Row | IC50 [1] [nM] | Compound | further results
15 | 108 | CC(C)[C@]1(C(=O)N2CCN(c3cccc(C(F)(F)F)c3)CC2)CC[C@@H](N[C@@H]2CCOC[C@@H]2C)C1 | –
16 | 77 | CC(C)[C@]1(C(=O)N2CCN(c3cccc(C(F)(F)F)c3)CC2)CC[C@@H](N[C@H]2CCOC[C@H]2C)C1 | –
17 | 26.5 | CO[C@@H]1COCC[C@@H]1N[C@@H]1CC[C@@](C(=O)N2CCN(c3cccc(C(F)(F)F)n3)CC2)(C(C)C)C1 | –
18 | 23 | CO[C@@H]1COCC[C@@H]1N[C@@H]1CC[C@@](C(=O)N2CCN(c3cccc(C(F)(F)F)c3)CC2)(C(C)C)C1 | –
19 | 22.5 | CCO[C@@H]1COCC[C@@H]1N[C@@H]1CC[C@@](C(=O)N2CCN(c3cccc(C(F)(F)F)c3)CC2)(C(C)C)C1 | –
20 | 18 | CC[C@@H]1COCC[C@@H]1N[C@@H]1CC[C@@](C(=O)N2CCN(c3cccc(C(F)(F)F)c3)CC2)(C(C)C)C1 | –
21 | 8.4 | CO[C@@H]1COCC[C@@H]1N[C@@H]1CC[C@](CC(F)(F)F)(C(=O)N2CCN(c3cc(C(F)(F)F)ccn3)CC2)C1 | –
